This passage reports GI50 and TGI results from PubChem BioAssay (NCI).

Several values for one entry are separate records, joined by “and”; a condition that tells them apart may be missing. Equal values may be shown once.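 Method: 48-hour compound exposure of cells in 96-well plates, five concentrations, linear interpolation of endpoints. The concentration for 50% growth inhibition is given as GI50. TGI is the concentration that stops growth completely.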

The subject of one experiment is A549 NSCLC. Put plainly: inhibition of tumour cell growth, NCI panel, 48 h.
For `CSc1ccc(/C=C2\CNC/C(=C\c3ccc(SC)cc3)C2=O)cc1`, the GI50 is 150 µg/mL; the TGI was > 371 µM and 150 µg/mL.

With `C/C(=N\O)c1ccc(Nc2cc(-n3nnc4ccccc43)nc3ccccc23)cc1`, the GI50 was 8.42 µM and the TGI is greater than 41.3 µM.

In the case of `Clc1ccc(COC(Cn2ccnc2)c2ccc(Cl)cc2Cl)cc1` (configuration not stated), the GI50 is 2.78 µM; the TGI was 12.1 µM and 27 µM and 23.9 µM.

Compound `Nc1c(C(=O)Nc2ccc([As](=O)(O)O)cc2)cnc2nnnn12` yielded a TGI greater than 100 µM.

As to `CC(C)n1c(/C=C/[C@@H](O)C[C@@H](O)CC(=O)O)c(-c2ccc(F)cc2)c2ccccc21`, the GI50 is 5.93 µM and 6.99 µM; the TGI is greater than 100 µM.

For `N#CC(C#N)SCc1ccccc1`, the TGI is greater than 100 µM.

Compound `CCOc1ccc(NCC2CC/C(=C\C=C\c3ccccc3)C2=O)cc1` (configuration not stated) gave a TGI greater than 100 µM.

Regarding `Cc1cc(N(CCNc2ccnc3cc(Cl)ccc23)Cc2ccc3c(c2)OCO3)nc(N2CCN(C)CC2)n1`, the GI50 is 3.51 µM and the TGI came to 12.8 µM.

Another experiment has as its system EKVX NSCLC. Nature of the experiment: inhibition of tumour cell growth, NCI panel, 48 h.
Take `CSc1ccc(/C=C2\CNC/C(=C\c3ccc(SC)cc3)C2=O)cc1`: the GI50 is 150 µg/mL; the TGI was > 371 µM and 150 µg/mL.

`C/C(=N\O)c1ccc(Nc2cc(-n3nnc4ccccc43)nc3ccccc23)cc1`: the GI50 is 6.97 µM and the TGI was greater than 28.9 µM.

For `Clc1ccc(COC(Cn2ccnc2)c2ccc(Cl)cc2Cl)cc1` (configuration not stated), the GI50 is 2.91 µM; the TGI was 13.9 µM and 25.5 µM and 27.5 µM.

Turning to `Nc1c(C(=O)Nc2ccc([As](=O)(O)O)cc2)cnc2nnnn12`, the TGI is greater than 100 µM.

`CC(C)n1c(/C=C/[C@@H](O)C[C@@H](O)CC(=O)O)c(-c2ccc(F)cc2)c2ccccc21`: the GI50 is 16.8 µM and the TGI is greater than 100 µM.

As for `N#CC(C#N)SCc1ccccc1`, the TGI was greater than 100 µM.

The compound `CCOc1ccc(NCC2CC/C(=C\C=C\c3ccccc3)C2=O)cc1` (configuration not stated) registered a TGI greater than 86.2 µM.

For the compound `Cc1cc(N(CCNc2ccnc3cc(Cl)ccc23)Cc2ccc3c(c2)OCO3)nc(N2CCN(C)CC2)n1`, the GI50 is 4.4 µM and the TGI is 18.9 µM.

A further experiment deals with HCT-15 colon. Put plainly: inhibition of tumour cell growth, NCI panel, 48 h.
Take `CSc1ccc(/C=C2\CNC/C(=C\c3ccc(SC)cc3)C2=O)cc1`: the GI50 was 112 µg/mL; the TGI was > 371 µM and 150 µg/mL.

Regarding `C/C(=N\O)c1ccc(Nc2cc(-n3nnc4ccccc43)nc3ccccc23)cc1`, the GI50 is 4.17 µM and the TGI was found to be 20.9 µM.

Take `Clc1ccc(COC(Cn2ccnc2)c2ccc(Cl)cc2Cl)cc1` (configuration not stated): the GI50 is 3.24 µM; the TGI is 12.7 µM and 27.5 µM.

For the compound `Nc1c(C(=O)Nc2ccc([As](=O)(O)O)cc2)cnc2nnnn12`, the TGI was greater than 100 µM.

Turning to `CC(C)n1c(/C=C/[C@@H](O)C[C@@H](O)CC(=O)O)c(-c2ccc(F)cc2)c2ccccc21`, the GI50 is 3.04 µM and 1.66 µM; the TGI was greater than 100 µM.

Regarding `N#CC(C#N)SCc1ccccc1`, the TGI was greater than 92 µM.

In turn, `CCOc1ccc(NCC2CC/C(=C\C=C\c3ccccc3)C2=O)cc1` (configuration not stated) returned a TGI of 18.9 µM.

On to `Cc1cc(N(CCNc2ccnc3cc(Cl)ccc23)Cc2ccc3c(c2)OCO3)nc(N2CCN(C)CC2)n1`, for which the GI50 is 1.55 µM and the TGI amounted to 3.82 µM.

Another experiment has as its system LOX IMVI melanoma. Put plainly: inhibition of tumour cell growth, NCI panel, 48 h.
Turning to `CSc1ccc(/C=C2\CNC/C(=C\c3ccc(SC)cc3)C2=O)cc1`, the GI50 is 7.76 µM and 150 µg/mL; the TGI was > 371 µM and 150 µg/mL.

`C/C(=N\O)c1ccc(Nc2cc(-n3nnc4ccccc43)nc3ccccc23)cc1`: the GI50 was 3.44 µM and the TGI stood at 13.5 µM.

For the compound `Clc1ccc(COC(Cn2ccnc2)c2ccc(Cl)cc2Cl)cc1` (configuration not stated), the GI50 was 0.533 µM.

As to `Nc1c(C(=O)Nc2ccc([As](=O)(O)O)cc2)cnc2nnnn12`, the TGI is greater than 100 µM.

As for `CC(C)n1c(/C=C/[C@@H](O)C[C@@H](O)CC(=O)O)c(-c2ccc(F)cc2)c2ccccc21`, the GI50 was 0.465 µM and 0.653 µM; the TGI was > 40.1 µM and 5.62 µM.

`N#CC(C#N)SCc1ccccc1` showed a TGI greater than 19.8 µM.

For `CCOc1ccc(NCC2CC/C(=C\C=C\c3ccccc3)C2=O)cc1` (configuration not stated), the TGI was found to be 23.5 µM.

Take `Cc1cc(N(CCNc2ccnc3cc(Cl)ccc23)Cc2ccc3c(c2)OCO3)nc(N2CCN(C)CC2)n1`: the GI50 is 1.79 µM and the TGI was 3.66 µM.

The test system of the next experiment is MALME-3M melanoma. Nature of the experiment: inhibition of tumour cell growth, NCI panel, 48 h.
Turning to `CSc1ccc(/C=C2\CNC/C(=C\c3ccc(SC)cc3)C2=O)cc1`, the GI50 is 150 µg/mL; the TGI is > 371 µM and 150 µg/mL.

On to `C/C(=N\O)c1ccc(Nc2cc(-n3nnc4ccccc43)nc3ccccc23)cc1`, for which the GI50 was 11.2 µM and the TGI was determined as 36.1 µM.

For `Clc1ccc(COC(Cn2ccnc2)c2ccc(Cl)cc2Cl)cc1` (configuration not stated), the GI50 is 2.22 µM; the TGI is 6.36 µM and 28.2 µM and 31.1 µM.

Compound `Nc1c(C(=O)Nc2ccc([As](=O)(O)O)cc2)cnc2nnnn12` displayed a TGI greater than 100 µM.

As for `CC(C)n1c(/C=C/[C@@H](O)C[C@@H](O)CC(=O)O)c(-c2ccc(F)cc2)c2ccccc21`, the GI50 was 26.7 µM and 27.4 µM; the TGI was greater than 100 µM.

Regarding `N#CC(C#N)SCc1ccccc1`, the TGI is greater than 100 µM.

As to `CCOc1ccc(NCC2CC/C(=C\C=C\c3ccccc3)C2=O)cc1` (configuration not stated), the TGI came out at 57.8 µM.

In the case of `Cc1cc(N(CCNc2ccnc3cc(Cl)ccc23)Cc2ccc3c(c2)OCO3)nc(N2CCN(C)CC2)n1`, the GI50 is 1.77 µM and the TGI amounted to 3.36 µM.

Another experiment deals with MDA-MB-435. Nature of the experiment: inhibition of tumour cell growth, NCI panel, 48 h.
`CSc1ccc(/C=C2\CNC/C(=C\c3ccc(SC)cc3)C2=O)cc1` showed a TGI greater than 371 µM.

For `C/C(=N\O)c1ccc(Nc2cc(-n3nnc4ccccc43)nc3ccccc23)cc1`, the GI50 was 8.86 µM and the TGI was greater than 28.3 µM.

Regarding `Clc1ccc(COC(Cn2ccnc2)c2ccc(Cl)cc2Cl)cc1` (configuration not stated), the GI50 was 2.91 µM; the TGI was 11.7 µM and 24.4 µM and 24 µM.

The compound `Nc1c(C(=O)Nc2ccc([As](=O)(O)O)cc2)cnc2nnnn12` returned a TGI greater than 100 µM.

For `CC(C)n1c(/C=C/[C@@H](O)C[C@@H](O)CC(=O)O)c(-c2ccc(F)cc2)c2ccccc21`, the GI50 was 10.5 µM and 14.4 µM; the TGI was greater than 100 µM.

In the case of `N#CC(C#N)SCc1ccccc1`, the TGI turned out to be 35.7 µM.

`CCOc1ccc(NCC2CC/C(=C\C=C\c3ccccc3)C2=O)cc1` (configuration not stated): the TGI was determined as 30.4 µM.

In the case of `Cc1cc(N(CCNc2ccnc3cc(Cl)ccc23)Cc2ccc3c(c2)OCO3)nc(N2CCN(C)CC2)n1`, the GI50 was 1.61 µM and the TGI came to 3.07 µM.

The test system of the next experiment is NCI-H226 lung. Put plainly: inhibition of tumour cell growth, NCI panel, 48 h.
As for `CSc1ccc(/C=C2\CNC/C(=C\c3ccc(SC)cc3)C2=O)cc1`, the GI50 was 99.7 µg/mL; the TGI was 104 µM and 150 µg/mL.

Regarding `C/C(=N\O)c1ccc(Nc2cc(-n3nnc4ccccc43)nc3ccccc23)cc1`, the GI50 is 7.88 µM and the TGI was found to be 30.3 µM.

With `Clc1ccc(COC(Cn2ccnc2)c2ccc(Cl)cc2Cl)cc1` (configuration not stated), the TGI was 22.1 µM and 50 µM and 11.7 µM.

As to `Nc1c(C(=O)Nc2ccc([As](=O)(O)O)cc2)cnc2nnnn12`, the TGI is greater than 100 µM.

In the case of `CC(C)n1c(/C=C/[C@@H](O)C[C@@H](O)CC(=O)O)c(-c2ccc(F)cc2)c2ccccc21`, the GI50 is 2.89 µM and 3.71 µM; the TGI is greater than 100 µM.

In turn, `N#CC(C#N)SCc1ccccc1` yielded a TGI of 76.6 µM.

`CCOc1ccc(NCC2CC/C(=C\C=C\c3ccccc3)C2=O)cc1` (configuration not stated): the TGI is greater than 100 µM.

With `Cc1cc(N(CCNc2ccnc3cc(Cl)ccc23)Cc2ccc3c(c2)OCO3)nc(N2CCN(C)CC2)n1`, the GI50 is 17.7 µM and the TGI is 36.8 µM.

For another experiment, the system named is NCI-H23 lung. Nature of the experiment: inhibition of tumour cell growth, NCI panel, 48 h.
As for `CSc1ccc(/C=C2\CNC/C(=C\c3ccc(SC)cc3)C2=O)cc1`, the GI50 was 21.2 µg/mL; the TGI was > 130 µM and 83.6 µg/mL.

As to `C/C(=N\O)c1ccc(Nc2cc(-n3nnc4ccccc43)nc3ccccc23)cc1`, the GI50 is 8.98 µM and the TGI was greater than 29.5 µM.

With `Clc1ccc(COC(Cn2ccnc2)c2ccc(Cl)cc2Cl)cc1` (configuration not stated), the GI50 was 2.08 µM; the TGI is 10.2 µM and 28.7 µM and 29.7 µM.

`Nc1c(C(=O)Nc2ccc([As](=O)(O)O)cc2)cnc2nnnn12` gave a TGI greater than 100 µM.

`CC(C)n1c(/C=C/[C@@H](O)C[C@@H](O)CC(=O)O)c(-c2ccc(F)cc2)c2ccccc21`: the GI50 is 3.29 µM and 3.86 µM; the TGI was greater than 100 µM.

On to `N#CC(C#N)SCc1ccccc1`, for which the TGI came to 89.1 µM.

`CCOc1ccc(NCC2CC/C(=C\C=C\c3ccccc3)C2=O)cc1` (configuration not stated) gave a TGI of 39.3 µM.

Turning to `Cc1cc(N(CCNc2ccnc3cc(Cl)ccc23)Cc2ccc3c(c2)OCO3)nc(N2CCN(C)CC2)n1`, the GI50 was 6.39 µM and the TGI worked out at 22.3 µM.

In the next experiment the test system is OVCAR-5 ovarian. Nature of the experiment: inhibition of tumour cell growth, NCI panel, 48 h.
With `CSc1ccc(/C=C2\CNC/C(=C\c3ccc(SC)cc3)C2=O)cc1`, the GI50 was 150 µg/mL; the TGI is > 371 µM and 150 µg/mL.

Turning to `C/C(=N\O)c1ccc(Nc2cc(-n3nnc4ccccc43)nc3ccccc23)cc1`, the GI50 was 8.49 µM and the TGI was greater than 37.3 µM.

In the case of `Clc1ccc(COC(Cn2ccnc2)c2ccc(Cl)cc2Cl)cc1` (configuration not stated), the GI50 was 4.24 µM; the TGI is 16.8 µM and 24.4 µM and 28.1 µM.

In turn, `Nc1c(C(=O)Nc2ccc([As](=O)(O)O)cc2)cnc2nnnn12` yielded a TGI greater than 100 µM.

On to `CC(C)n1c(/C=C/[C@@H](O)C[C@@H](O)CC(=O)O)c(-c2ccc(F)cc2)c2ccccc21`, for which the GI50 was 18.5 µM and 26.6 µM; the TGI is greater than 100 µM.

`N#CC(C#N)SCc1ccccc1` had a TGI greater than 40.3 µM.

With `CCOc1ccc(NCC2CC/C(=C\C=C\c3ccccc3)C2=O)cc1` (configuration not stated), the TGI turned out to be 53.4 µM.

With `Cc1cc(N(CCNc2ccnc3cc(Cl)ccc23)Cc2ccc3c(c2)OCO3)nc(N2CCN(C)CC2)n1`, the GI50 is 5.5 µM and the TGI came to 18.3 µM.

In the next experiment the test system is SNB-19 CNS. Nature of the experiment: inhibition of tumour cell growth, NCI panel, 48 h.
For `CSc1ccc(/C=C2\CNC/C(=C\c3ccc(SC)cc3)C2=O)cc1`, the GI50 was 50.9 µM and 23.9 µg/mL; the TGI was > 127 µM and 89.4 µg/mL.

Take `C/C(=N\O)c1ccc(Nc2cc(-n3nnc4ccccc43)nc3ccccc23)cc1`: the GI50 is 19.9 µM and the TGI is greater than 90.7 µM.

With `Clc1ccc(COC(Cn2ccnc2)c2ccc(Cl)cc2Cl)cc1` (configuration not stated), the GI50 is 3.35 µM; the TGI is 17.9 µM and 32.3 µM and 30.5 µM.

Consider `Nc1c(C(=O)Nc2ccc([As](=O)(O)O)cc2)cnc2nnnn12`, for which the TGI is greater than 100 µM.

Turning to `CC(C)n1c(/C=C/[C@@H](O)C[C@@H](O)CC(=O)O)c(-c2ccc(F)cc2)c2ccccc21`, the GI50 is 4.23 µM and 1.32 µM; the TGI is greater than 100 µM.

`N#CC(C#N)SCc1ccccc1` had a TGI greater than 100 µM.

Compound `CCOc1ccc(NCC2CC/C(=C\C=C\c3ccccc3)C2=O)cc1` (configuration not stated) yielded a TGI of 60.9 µM.

On to `Cc1cc(N(CCNc2ccnc3cc(Cl)ccc23)Cc2ccc3c(c2)OCO3)nc(N2CCN(C)CC2)n1`, for which the GI50 is 3.78 µM and the TGI is 13 µM.
